Results as given in patent US20030108619A1, “Bone-strengthening agents, food compositions for strengthening bone and feed compositions for strengthening bone” (priority 2000, published 2003).

What was measured:
femora [1] = assay: Amount of DNA in femora, Example 1; assay type: in vivo, rat; details: 5-weeks old rats
Description: (§1) 5-weeks old female Wistar rats (Convention) obtained from Japan SLC, Inc. (Hamamatsu, Japan) were used. 2. CPP-administered group: Basic feed+CPP (40 mg/100 g body weight) 3. Genistein-administered group: Basic feed+genistein (50 μg/100 g body weight) 4. CPP+genistein-administered group: Basic feed+CPP (40 mg/100 g body weight)+genistein (50 μg/100 g body weight) As the CPP, a solution of CPP-III (casein phosphopeptide content 85%) manufactured by Meiji Seika Kaisha, Ltd., dissolved in distilled water was used. As the genistein, a reagent (manufactured by Sigma Chemical Company in U.S. A.) extracted from soybean and highly purified, dissolved in a 10% ethanol solution was used. Animal groups each consisting of five animals were fed with the basic feed under constant temperature and constant humidity conditions of room temperature 25° C., and 55% humidity. In addition, the control group was administered with 1 ml/100 g body weight of purified distilled water and the other groups were each orally administered with CPP and/or genistein in the above-mentioned amounts once a day for 14 days by using a stomach tube. After 24 hours from the last administration, the rats were sacrificed and the femora were extracted. The extracted femora were used for the measurement of bone components as shown below. The diaphysial tissue and metaphysial tissue of the femora thus obtained were each crushed in 4.0 ml of a cold 0.1 N NaOH solution after homogenization of the bone tissue, shaken at 4° C. for 24 hours and extracted. After the alkali extraction, centrifugation treatment was performed at 1,000×g for 5 minutes and the supernatant fraction was used as a sample for the measurement of DNA. The measurement of the amount of DNA was performed in accordance with the method of Ceriotti (J. Biol. Chem., 214: 39-77, 1955). To a test tube containing 2.0 ml of a sample were added 1.0 ml of concentrated hydrochloric acid and 1.0 ml of a 0.04% indole solution and the test tube was shut with an aluminum cap, followed by heating on a boiling water bath for 10 minutes and then quenched on ice to terminate the reaction. Extraction with 4.0 ml of chloroform for 3 to 4 minutes was repeated several times and the amount of DNA was measured on a spectrophotometer (490 nm). The amount of DNA was calculated per wet weight (g) of bone tissue. Significant tests of respective measured values were performed by using Student's t-test. Values with a risk factor of 5% or less were taken as significant.

femora [2] = assay: Amount of calcium in femora, Example 1; assay type: in vivo, rat; details: 5-weeks old rats
Description: (§2) 5-weeks old female Wistar rats (Convention) obtained from Japan SLC, Inc. (Hamamatsu, Japan) were used.
(§3) 2. CPP-administered group: Basic feed+CPP (40 mg/100 g body weight)
(§4) 3. Genistein-administered group: Basic feed+genistein (50 μg/100 g body weight)
(§5) 4. CPP+genistein-administered group: Basic feed+CPP (40 mg/100 g body weight)+genistein (50 μg/100 g body weight)
(§6) As the CPP, a solution of CPP-III (casein phosphopeptide content 85%) manufactured by Meiji Seika Kaisha, Ltd., dissolved in distilled water was used. As the genistein, a reagent (manufactured by Sigma Chemical Company in U.S. A.) extracted from soybean and highly purified, dissolved in a 10% ethanol solution was used.
(§7) Animal groups each consisting of five animals were fed with the basic feed under constant temperature and constant humidity conditions of room temperature 25° C., and 55% humidity. In addition, the control group was administered with 1 ml/100 g body weight of purified distilled water and the other groups were each orally administered with CPP and/or genistein in the above-mentioned amounts once a day for 14 days by using a stomach tube. After 24 hours from the last administration, the rats were sacrificed and the femora were extracted. The extracted femora were used for the measurement of bone components as shown below.
(§8) After washing the extracted femora in a cold 0.25 M sucrose solution to remove a soft tissue and drying it in a drier at 100° C. for about 16 hours, the dry weight of the femora was measured. After the measurement, the extracted femora were divided into diaphysis (cortical bone) and metaphysis (trabecular bone) and the amount of calcium in each of them was measured. That is, the obtained diaphysial tissue and metaphysial tissue of the femora were each charged in a test tube, to which was added 3 ml of concentrated nitric acid to decompose them at 120° C. for 24 hours. The solutions were used as sample solutions and the amount of calcium therein was determined by using an atomic absorption spectrophotometer. The amounts of calcium were expressed in terms of mg per 1 g of the dry weight of the bone tissue.
(§9) Significant tests of respective measured values were performed by using Student's t-test. Values with a risk factor of 5% or less were taken as significant.

femora [3] = assay: Dry weight of femora, Example 2; assay type: in vivo, rat
Description: as §3, §4, §5, §6
Animal groups each consisting of five animals were fed with the basic feed under constant temperature and constant humidity conditions of room temperature 25° C., and 55% humidity. […]
(§10) After washing the extracted femora in a cold 0.25 M sucrose solution to remove a soft tissue and drying it in a drier at 100° C. for about 16 hours, the dry weight of the femora was measured. After the measurement, the extracted femora were divided into diaphysis (cortical bone) and metaphysis (trabecular bone) and the amount of calcium in each of them was measured. […] The solutions were used as sample solutions and the amount of calcium therein was determined by using an atomic absorption spectrophotometer. […]
(§11) Significant tests of respective measured values were performed by using Student's t-test. […]

[4] = test system: bone alkaline phosphatase; assay: Activity of femoral alkaline phosphatase, Example 1; assay type: in vivo, rat; details: 5-weeks old rats
Description: as §2, §3, §4, §5, §6, §7
(§12) The diaphysial tissue and metaphysial tissue of the femora obtained as described above were each dipped in 3 ml of a cold 6.5 mM barbital buffer (pH 7.4) and cut into small pieces and homogenized by using a Potter-Elvehjem homogenizer followed by ultrasonic treatment for 60 seconds for crushing. Further, the homogenate was centrifuged for 5 minutes at 600×g and the supernatant fraction was used as a crude enzyme solution.
(§13) The activity of bone alkaline phosphatase was measured in accordance with the method of Walter and Schutt (Bergmeyer H. U. (ed.). Methods of Enzymatic Analysis, Vol. 1-2, Academic Press, New York, pp. 856-860, 1974). The enzymatic reaction was initiated by adding 0.05 ml of the above-mentioned crude enzyme solution to 2 ml of 0.1M diethanolamine hydrochloride buffer (pH 9.8) containing disodium p-nitrophenyiphosphate as a substrate. The reaction was performed by incubation at 37° C. for 30 minutes. The reaction was terminated by adding 10 ml of 0.05N NaOH and the activity was expressed in terms of the amount (μmol) of free p-nitrophenol per 1 minute per the mass (mg) of the enzyme protein used. The concentration of the protein was measured in accordance with the method of Lowry et al. (J. Biol. Chem., 193: 265-273, 1951).
as §9

osteoblasts = details: Res. Exp. Med. 197: 101-107, 1997; cited from earlier work
femora [5] = assay: Amount of DNA in femora, Example 2; assay type: in vivo, rat; details: 50-weeks old rats
Description: as §1, with “2.” for “5-weeks old female Wistar rats (Convention) obtained from Japan SLC, Inc. (Hamamatsu, Japan) were used. 2.”, “significant. 1) The materials and methods in Example 2 were the same as in Example 1 except that 50-weeks old normal female Wistar rats obtained from Japan SLC, Inc. (Hamamatsu, Japan) were used as test animals.” for “significant.”

[6] = test system: bone alkaline phosphatase; assay: Activity of femoral alkaline phosphatase, Example 2; assay type: in vivo, rat; details: 50-weeks old rats
Description: as §3, §4, §5, §6, §7, §12, §13
Significant tests of respective measured values were performed by using Student's t-test. Values with a risk factor of 5% or less were taken as significant. […]

osteoclasts [7] = details: culture system using metaphysial tissue in the femora of old rats; Biochem. Pharmacol., 55: 71-76, 1998; cited from earlier work
femora [8] = assay: Dry weight of femora, Example 1; assay type: in vivo, rat
Description: as §2, §3, §4, §5
As the CPP, a solution of CPP-III (casein phosphopeptide content 85%) manufactured by Meiji Seika Kaisha, Ltd., dissolved in distilled water was used. As the genistein, a reagent (manufactured by Sigma Chemical Company in U.S. A.) extracted from soybean and highly purified, dissolved in a 10% ethanol solution was used. […]
as §10, §11

osteoclasts [9] = details: Biol. Pharm. Bull., 22, 805-809, 1999; cited from earlier work
femora [10] = assay: Amount of calcium in femora, Example 2; assay type: in vivo, rat; details: 50-weeks old rats
Description: as §3, §4, §5, §6, §7, §8, §9
1) The materials and methods in Example 2 were the same as in Example 1 except that 50-weeks old normal female Wistar rats obtained from Japan SLC, Inc. (Hamamatsu, Japan) were used as test animals.

## O=c1c(-c2ccc(O)cc2)coc2cc(O)cc(O)c12 [Genistein, genistein]
Femora [1]; diaphysis
  Amount of DNA in the diaphysis as compared with that of the control group: 1.06 times
Femora [1]; metaphysis
  Amount of DNA in the metaphysis as compared with that of the control group: 1.09 times
Femora [1]; oral 14 days, diaphysis
  Amount of DNA, Diaphysis: 1.895 ± 0.013 mg/g wet weight of bone
Femora [1]; oral 14 days, metaphysis
  Amount of DNA, Metaphysis: 2.894 ± 0.034 mg/g wet weight of bone
Femora [2]; diaphysis
  Amount of calcium in the diaphysis as compared with that of the control group: 1.12 times
Femora [2]; metaphysis
  Amount of calcium in the metaphysis as compared with that of the control group: 1.07 times
Femora [2]; oral 14 days, diaphysis
  Bone calcium, Diaphysis: 225.1 ± 3.23 mg/g dry weight
Femora [2]; oral 14 days, metaphysis
  Bone calcium, Metaphysis: 204.1 ± 3.56 mg/g dry weight
Femora [3]; 50-weeks old female Wistar rats, oral once a day for 14 days, CPP 40 mg/100 g, genistein 50 μg/100 g body weight
  Dry weight of femora: 475.3 ± 8.35 mg
Femora [3]; 50-weeks old rats, oral 14 days
  Dry weight of femora as compared with that of the control group: 1.08 times
[4]; diaphysis
  Activity of femoral alkaline phosphatase in the diaphysis as compared with that of the control group: 1.04 times
[4]; metaphysis
  Activity of femoral alkaline phosphatase in the metaphysis as compared with that of the control group: 1.04 times
[4]; oral 14 days, diaphysis
  The activity of alkaline phosphatase, Diaphysis: 1.809 ± 0.014 μmol/min/mg protein
[4]; oral 14 days, metaphysis
  The activity of alkaline phosphatase, Metaphysis: 1.853 ± 0.017 μmol/min/mg protein
osteoblasts
  Amount of DNA (index of increase in bone mineral content and cell growth by osteoblasts): causes an increase in the amount of DNA
Femora [5]; diaphysis
  Amount of DNA in the diaphysis as compared with that of the control group: 1.14 times
Femora [5]; metaphysis, printed under [Amount of DNA in Femora]
  Amount of DNA in the metaphysis as compared with that of the control group: 1.05 times
Femora [5]; oral 14 days, diaphysis
  Amount of DNA, Diaphysis: 1.391 ± 0.043 mg/g wet weight of bone
Femora [5]; oral 14 days, metaphysis
  Amount of DNA, Metaphysis: 2.836 ± 0.041 mg/g wet weight of bone
[6]; diaphysis
  Activity of femoral alkaline phosphatase in the diaphysis as compared with that of the control group: 1.12 times
[6]; metaphysis
  Activity of femoral alkaline phosphatase in the metaphysis as compared with that of the control group: 1.12 times
[6]; oral 14 days, diaphysis
  The activity of alkaline phosphatase, Diaphysis: 0.653 ± 0.019 μmol/min/mg protein
[6]; oral 14 days, metaphysis
  The activity of alkaline phosphatase, Metaphysis: 0.744 ± 0.020 μmol/min/mg protein
Osteoclasts [7]
  Bone resorption by osteoclasts: directly inhibits the bone resorption by osteoclasts
Femora [8]; 5-weeks old female Wistar rats, oral once a day for 14 days, CPP 40 mg/100 g, genistein 50 μg/100 g body weight
  Dry weight of femora: 230.4 ± 1.20 mg
Femora [8]; 5-weeks old rats, oral 14 days
  Dry weight of femora as compared with that of the control group: 1.12 times
Osteoclasts [9]
  Effect of inhibiting the function of osteoclasts, potency relative to daidzein: 10 times
Femora [10]; diaphysis
  Amount of calcium in the diaphysis as compared with that of the control group: 1.07 times
Femora [10]; metaphysis
  Amount of calcium in femora in the metaphysis as compared with that of the control group: 1.08 times
Femora [10]; oral 14 days, diaphysis
  Amount of bone calcium, Diaphysis: 229.2 ± 3.4 mg/g dry weight
Femora [10]; oral 14 days, metaphysis
  Amount of bone calcium, Metaphysis: 202.1 ± 3.8 mg/g dry weight
